Experimental data: patent US5281628A, “9-amino-7-(substituted)-6-demethyl-6-deoxytetracyclines” (American Cyanamid Company, priority 1991, dated 1994)
Where a name gives a salt, the structure may show the parent alone.

Experiments:
[1] = tested on: S. aureus UBMS 90-2 (tetM); assay: Acute lethal infections in mice; assay type: in vivo; conditions: Staphylococcus aureus, 168 h
Protocol: (§1) The therapeutic effects of tetracyclines are determined against acute lethal infections with various staphylococcal and E. coli strains. Female mice, strain CD-1 Charles River Laboratories, (20±2 grams) are challenged by an intraperitoneal injection of sufficient bacteria (suspended in broth or hog gastric mucin) to kill non-treated controls within 24-48 hours. Antibacterial agents, contained in 0.5 ml of 0.2% aqueous agar, are administered subcutaneously or orally 30 minutes after infection. When an oral dosing schedule is used, animals are deprived of food for 5 hours before and 2 hours after infection. Five mice are treated at each dose level. The 7 day survival ratios from three separate tests are pooled for calculation of median effective dose (ED50).

E. coli 311 (sens) = assay: Acute lethal infections in mice; assay type: in vivo; conditions: Escherichia coli, sc, 168 h, Subcutaneous, Single Dose, 7 day survival
Protocol: as §1

S. aureus Smith (sens) = assay: Acute lethal infections in mice; assay type: in vivo; conditions: Staphylococcus aureus, 168 h, Single Dose, 7 day survival
Protocol: as §1

[2] = tested on: S. aureus UBMS 90-1 (tetM); assay: Acute lethal infections in mice; assay type: in vivo; conditions: Staphylococcus aureus, sc, 168 h
Protocol: as §1

E. coli UBMS 90-4 (tetM) [3] = assay: Acute lethal infections in mice; assay type: in vivo; conditions: Escherichia coli, sc, 168 h
Protocol: as §1

S. aureus and E. coli = assay: Acute lethal infections in mice, statements over several strains; assay type: in vivo; conditions: S. aureus and E. coli carrying tetM
Protocol: as §1

[4] = tested on: E. coli S30 Ribosomes, tetM Variant (tetM protected ribosomes); assay: In vitro protein translation with E. coli S30 ribosomes, tetM variant; assay type: biochemical; conditions: for inhibition of protein synthesis on tetM protected ribosomes (in words): coupled transcription and translation system
Protocol: The E. coli in vitro translation system can be used to study not only the mechanism of protein translation itself, but also the effect that various compounds may have on protein synthesis. The system can be set up to function as a coupled transcription and translation system or as a translation only system depending on whether DNA or RNA is added to initiate protein synthesis. In this way, compounds affecting either RNA synthesis and/or protein synthesis can be studied. Protein synthesis is monitored by the incorporation of radiolabeled amino acids into trichloroacetic acid precipitable material. The system used is based upon literature methods [G. Zubay, Ann. Rev. Genet., 7: 267-287(1973) and J. Collins, Gene, 6: 28-42 (1979)].
The system used to study tetracycline protein synthesis inhibition is as follows:
An S30 extract (supernatant from a 30,000×G centrifugation of lysed cells) of either tetracycline sensitive or tetracycline resistant (tetM+) cells is combined with a mixture of low molecular weight compounds required for protein synthesis which include a mixture of 19 amino acids, methionine, ^35 S-methionine, plasmid template DNA and either dimethylsulfoxide (DMSO) or the tetracycline to be tested dissolved and diluted in DMSO. This mixture is incubated at 37° C. for 30 minutes. Following the incubation, 2.5 μl of the 10 μl reaction is removed and added to 0.5 ml of 1N sodium hydroxide. The solution is incubated an additional 15 minutes at 37° C., to destroy any m-RNA and t-RNA. The incorporation of ^35 S-methionine is determined by precipitating the high molecular weight material in the sodium hydroxide aliquot with trichloroacetic acid (TCA), collecting the precipitated material on Whatman G/FC filters, drying the filters and counting the radioactivity retained on the filter. Percent inhibition (P.I.) of protein synthesis is determined by the following equation: [formula]

[5] = tested on: S. aureus UBMS 88-7 (tetK); assay: microbe, parasite or virus in culture; assay type: cell-based; conditions: Staphylococcus aureus, 18 h
Protocol: (§2) The minimum inhibitory concentration (MIC), the lowest concentration of the antibiotic which inhibits growth of the test organism, is determined by the microtiter broth dilution method using 0.1 ml Muller-Hinton II broth (Baltimore Biological Laboratories) per well. A suitable oxygen scavenger (i.e., cysteine or dithiothreitol) is added to the assay medium for the testing of compounds according to Formula I because of the sensitivity of those compounds to oxidation. An inoculum level of 1-5×10^5 CFU/ml and a range of antibiotic concentrations (32 0.004 μg/ml) are used.

E. coli UBMS 88-1 (tetB) = assay: microbe, parasite or virus in culture; assay type: cell-based; conditions: Escherichia coli, 18 h
Protocol: as §2

[6] = tested on: E. faecalis PAM 211 (tetN); assay: MIC, microtiter broth dilution; assay type: cell-based; conditions: Enterococcus faecalis, 18 h
Protocol: as §2

[7] = tested on: E. coli UBMS 89-2 (tetracycline-sensitive); assay: MIC, microtiter broth dilution; assay type: cell-based; conditions: Escherichia coli, 18 h, no cysteine stated
Protocol: as §2

[8] = tested on: E. faecalis AMV 120 (tetM); assay: MIC, microtiter broth dilution; assay type: cell-based; conditions: Enterococcus faecalis, 18 h
Protocol: as §2

E. coli UBMS 89-1 (tetM) = assay: MIC, microtiter broth dilution; assay type: cell-based; conditions: Escherichia coli, 18 h
Protocol: as §2

M. morganii NEMC 87-119 = assay: MIC, microtiter broth dilution; assay type: cell-based; conditions: Morganella morganii, NEMC87119, 18 h, no cysteine stated
Protocol: as §2

E. coli UBMS 90-4 (tetM) [9] = assay: MIC, microtiter broth dilution; assay type: cell-based; conditions: Escherichia coli, 18 h
Protocol: as §2

[10] = tested on: X. maltophilia FPOR 87-210; assay: MIC, microtiter broth dilution; assay type: cell-based; conditions: Stenotrophomonas maltophilia, FPOR87210, 18 h, no cysteine stated
Protocol: as §2

[11] = tetM S30 with DTT, 1:2 Dilution
[12] = tetM S30 with DTT, 1:4 Dilution
[13] = tetM S30 with DTT, 1:8 Dilution
[14] = tetM S30 with DTT, 1:16 Dilution
[15] = tetM S30 with DTT, 1:32 Dilution
[16] = tetM S30 with DTT, 1:64 Dilution

**Q.** Which results are given for `CN(C)c1cc(N)c(O)c2c1C[C@H]1C[C@H]3[C@H](N(C)C)C(O)=C(C(N)=O)C(=O)[C@@]3(O)C(O)=C1C2=O` [A, 9-Amino-7-(dimethylamino)-6-demethyl-6-deoxytetracycline hydrochloride]?
**A.** ED50 ([1]; po): 1.6 mg/kg; ED50 ([1]; sc): 0.53 mg/kg; ED50 (E. coli 311 (sens)): 2.8 mg/kg; ED50 (S. aureus Smith (sens); Oral): 0.81 mg/kg; ED50 (S. aureus Smith (sens); sc, Subcutaneous): 0.34 mg/kg; ED50 [2]: 0.3 mg/kg; ED50 (E. coli UBMS 90-4 (tetM) [3]): 24 mg/kg; ED50 compared with B, strains which carry the tetM resistance determinant (S. aureus and E. coli): Lowered ED50 's; inhibition of protein synthesis on tetM protected ribosomes (in words) [4]: effective in inhibiting protein synthesis; % Inhibition ([4]; tetM S30 no DTT, 1.0 mg/ml): 48%; Counts ([4]; tetM S30 no DTT, 1.0 mg/ml): 129780; % Inhibition ([4]; tetM S30 no DTT, 1:2 Dilution): 36%; Counts ([4]; tetM S30 no DTT, 1:2 Dilution): 158861; % Inhibition ([4]; tetM S30 no DTT, 1:4 Dilution): 18%; Counts ([4]; tetM S30 no DTT, 1:4 Dilution): 203184; % Inhibition ([4]; tetM S30 no DTT, 1:8 Dilution): 7%; Counts ([4]; tetM S30 no DTT, 1:8 Dilution): 231447; % Inhibition ([4]; tetM S30 no DTT, 1:16 Dilution): 0%; Counts ([4]; tetM S30 no DTT, 1:16 Dilution): 305633; % Inhibition ([4]; tetM S30 no DTT, 1:32 Dilution): 0%; Counts ([4]; tetM S30 no DTT, 1:32 Dilution): 349994; % Inhibition ([4]; tetM S30 no DTT, 1:64 Dilution): 0%; Counts ([4]; tetM S30 no DTT, 1:64 Dilution): 310723; % Inhibition ([4]; tetM S30 with DTT, 1.0 mg/ml): 68%; Counts ([4]; tetM S30 with DTT, 1.0 mg/ml): 145068; % Inhibition [4, 11]: 62%; Counts [4, 11]: 168574; % Inhibition [4, 12]: 49%; Counts [4, 12]: 226708; % Inhibition [4, 13]: 36%; Counts [4, 13]: 284606; % Inhibition [4, 14]: 16%; Counts [4, 14]: 375989; % Inhibition [4, 15]: 8%; Counts [4, 15]: 412967; % Inhibition [4, 16]: 0%; Counts [4, 16]: 507461

**Q.** `CN(C)c1ccc(O)c2c1C[C@H]1C[C@H]3[C@H](N(C)C)C(O)=C(C(N)=O)C(=O)[C@@]3(O)C(O)=C1C2=O` [B, 7-(Dimethylamino)-6-demethyl-6-deoxytetracycline hydrochloride] was tested. Which ED50 ([1]; po) did it give?
**A.** 1.8 mg/kg

**Q.** What about the ED50 ([1]; sc) of the same compound?
**A.** 1.8 mg/kg

**Q.** And the ED50 (E. coli 311 (sens))?
**A.** 3.1 mg/kg

**Q.** And the ED50 (S. aureus Smith (sens); Oral)?
**A.** 0.53 mg/kg

**Q.** And the ED50 (S. aureus Smith (sens); sc, Subcutaneous)?
**A.** 0.32 mg/kg

**Q.** What about the ED50 [2] of the same compound?
**A.** 1.7 mg/kg

**Q.** What about the ED50 (E. coli UBMS 90-4 (tetM) [3]) of the same compound?
**A.** > 256 mg/kg

**Q.** And the MIC [5]?
**A.** 0.03 µg/mL

**Q.** And the MIC (E. coli UBMS 88-1 (tetB))?
**A.** 8 µg/mL

**Q.** What about the “inhibition of protein synthesis on tetM protected ribosomes (in words)” value [4] of the same compound?
**A.** unable to inhibit protein synthesis

**Q.** And the “% Inhibition” value ([4]; tetM S30 no DTT, 1.0 mg/ml)?
**A.** 0%

**Q.** And the Counts ([4]; tetM S30 no DTT, 1.0 mg/ml)?
**A.** 281528

**Q.** And the “% Inhibition” value ([4]; tetM S30 no DTT, 1:2 Dilution)?
**A.** 0%

**Q.** And the Counts ([4]; tetM S30 no DTT, 1:2 Dilution)?
**A.** 258633

**Q.** What about the “% Inhibition” value ([4]; tetM S30 no DTT, 1:4 Dilution) of the same compound?
**A.** 0%

**Q.** And the Counts ([4]; tetM S30 no DTT, 1:4 Dilution)?
**A.** 248904

**Q.** And the “% Inhibition” value ([4]; tetM S30 no DTT, 1:8 Dilution)?
**A.** 0%

**Q.** What about the Counts ([4]; tetM S30 no DTT, 1:8 Dilution) of the same compound?
**A.** 289595

**Q.** What about the “% Inhibition” value ([4]; tetM S30 no DTT, 1:16 Dilution) of the same compound?
**A.** 0%

**Q.** And the Counts ([4]; tetM S30 no DTT, 1:16 Dilution)?
**A.** 287498

**Q.** And the “% Inhibition” value ([4]; tetM S30 no DTT, 1:32 Dilution)?
**A.** 0%

**Q.** And the Counts ([4]; tetM S30 no DTT, 1:32 Dilution)?
**A.** 262329

**Q.** And the “% Inhibition” value ([4]; tetM S30 no DTT, 1:64 Dilution)?
**A.** 0%

**Q.** What about the Counts ([4]; tetM S30 no DTT, 1:64 Dilution) of the same compound?
**A.** 249242

**Q.** And the “% Inhibition” value ([4]; tetM S30 with DTT, 1.0 mg/ml)?
**A.** 17%

**Q.** And the Counts ([4]; tetM S30 with DTT, 1.0 mg/ml)?
**A.** 371475

**Q.** And the “% Inhibition” value [4, 11]?
**A.** 26%

**Q.** And the Counts [4, 11]?
**A.** 331439

**Q.** What about the “% Inhibition” value [4, 12] of the same compound?
**A.** 17%

**Q.** What about the Counts [4, 12] of the same compound?
**A.** 373168

**Q.** And the “% Inhibition” value [4, 13]?
**A.** 6%

**Q.** And the Counts [4, 13]?
**A.** 421533

**Q.** What about the “% Inhibition” value [4, 14] of the same compound?
**A.** 0%

**Q.** What about the Counts [4, 14] of the same compound?
**A.** 493679

**Q.** And the “% Inhibition” value [4, 15]?
**A.** 0%

**Q.** And the Counts [4, 15]?
**A.** 490283

**Q.** And the “% Inhibition” value [4, 16]?
**A.** 0%

**Q.** What about the Counts [4, 16] of the same compound?
**A.** 452837

**Q.** And the MIC [6]?
**A.** 16 µg/mL

**Q.** What about the MIC [7] of the same compound?
**A.** 0.5 µg/mL

**Q.** What about the MIC [8] of the same compound?
**A.** 16 µg/mL

**Q.** And the MIC (E. coli UBMS 89-1 (tetM))?
**A.** 8 µg/mL

**Q.** And the MIC (M. morganii NEMC 87-119)?
**A.** 2 µg/mL

**Q.** And the MIC (E. coli UBMS 90-4 (tetM) [9])?
**A.** > 32 µg/mL

**Q.** And the MIC [10]?
**A.** 0.06 µg/mL
